Read-outs that look alike come from different tables or passages of the source.
Experiments:
[1] = test system: Mx1 RNA in murine L929 cells; assay: Mx1 RNA induction in vitro in L929 cells (TaqMan RT-PCR); type: cell-based
Procedure: FIG. 5 illustrates Mx1 RNA induction in vitro (in L929 cells) by mIFN-β. L929 cells were seeded at 5×10^5 cells in 6 well plates and stimulated with increasing amounts of purified recombinant mIFN-β protein. Four hours after treatment the cells were harvested, RNA isolated, and Mx1 RNA quantitated by TaqMan analysis. Mx1 RNA expression is plotted as the fold increase relative to GAPDH RNA.
• A. Development of mIFN-β Biomarkers: For higher sensitivity in detection of murine IFN-β (mIFN-β) activity in vivo, biomarkers for mIFN-β activity were identified in mice after injection of mIFN-β protein or mIFN-β encoded gene therapy vectors. […] In the present study, the expression of the MxA mouse homologue, Mx1, (see e.g., Hug, H et al. Mol Cell Biol 8: 3065-79; Pavlovic, J (1993) Ciba Found Symp 176: 233-43) isolated from murine peripheral blood monocytes (PBMC's) was used to detect the presence of biologically active mIFN-β. • A quantitative PCR/RT-PCR assay was developed to quantitate the levels of Mx1 mRNA in murine PBMC's. […] The samples were analyzed with an Mx1-specific probe/primer combination. Mx1 expression was normalized to GAPDH expression measured in parallel using a standard assay from ABI. • The assay was validated in vitro by examining Mx1 RNA induction in murine L929 cells treated with purified recombinant mIFN-β protein (FIG. 5). […]

[2] = test system: luciferase reporter gene; assay: Luciferase reporter gene assay for activity of purified mIFN-β protein; type: cell-based
Procedure: Specifically, the gene encoding mIFN-β was cloned into a pCEP4 expression vector (Invitrogen). The expression plasmid encoding mIFN-β was transiently transfected into 293E cells (Edge Biosystems) using X-tremeGene Ro-1539 Transfection Reagent (Roche). Murine IFN-β protein was purified from the medium by ion-exchange chromatography and by hydrophobic-interaction chromatography. The product was sialyzed and concentrated against dilution buffer (50 mM sodium acetate, pH 5.5, 150 mM sodium chloride, and 5% polypropylene glycol) and sterile filtered. Aliquots of the purified protein were stored at −80° C. The activity of the purified protein was assessed using a luciferase reporter gene assay (Hardy et al. (2001) Blood 97:473-482), using a commercial mIFN-β reference standard from Access Biomedical (San Diego, Calif.). The specific activity of the purified protein was 2×10^8 units/mg.
The positive control used for this study was Prednisolone, 2.5 mg/kg, (Sigma, St. Louis) administered by IP injection twice daily, beginning on day 1, until the end of the study. For mIFN-β protein delivery, the mice were given SC injections of purified recombinant mIFN-β protein every other day, starting on day 1 of the study (100,000 or 300,000 IU per animal per injection in 100 ul vehicle buffer). […]

Substance: mIFN-β: purified recombinant murine interferon-beta protein
- EC50 of Mx1 RNA induction ([1]; 4 hours treatment): approximately 50 pg/ml
- increase in the level of Mx1 RNA ([1]; relative to GAPDH): 100 fold
- specific activity of the purified protein [2]: 2×10^8 international units (IU) per mg
- specific activity of the purified protein ([2]; commercial mIFN-β reference standard): 2×10^8 units/mg

From US20080076729A1, “Interferon-beta gene therapy using an improved, regulated expression system” (Schering Aktiengesellachaft, priority 2005, published 2008)
